Laboratory results reported in patent US20190024193A1, “Sesquiterpene Biosensors and Uses Thereof” (priority 2017, published 2019).

How the values were obtained:
PB2 bisabolol biosensor = PB2 bisabolol biosensor reporter fluorescence (Gemini reporter, GFP portion) in E. coli EPI300 host cells; assay type: cell-based, E. coli EPI300 (PB2 insert originating from Pseudomonas); details: E. coli EPI300 with PB2, high (0.01% arabinose) or low copy number
Experimental: (§1) A metagenomic library made from environmental samples obtained from hots springs, permafrost, sea water, soil, and hydrocarbon resource samples (from soil) was made using the Meta-G-Nome™ DNA Isolation Kit and CopyControl™ Fosmid Library Production Kit obtained from Epicentre. 300-400 fosmid clones from this library were obtained and mixed with a Tn5 transposase and sufficient biosensor construct (FIG. 1) was added to give about 10 biosensor inserts per fosmid. The transposase randomly integrated the biosensor construct into the fosmid vector, and the modified fosmid library with biosensor constructs was transformed into E. coli strain EPI300™ (commercially sold by Epicentre). The E. coli EPI300™ transformed with the modified fosmid library was plated on LB media with 20 μg/ml spectinomycin and 0.01% arabinose.
(§2) These functional biosensors were interrogated with (−)-α-bisabolol and clones that produced reporter fluorescence above control in response to the (−)-α-bisabolol were selected. Two bisabolol positive clones were selected and designated PB2 and PB3. PB2 was obtained from a fosmid with an insert originating from Pseudomonas, and PB3 was obtained from a fosmid with an insert originating from Bradyrhizobium.
(§3) As described above, the copy number of the fosmids with the PB2 biosensor and the PB3 biosensor can by increased in E. coli EPI300™ host cells that are treated with arabinose to induce an increase in copy number of the fosmid. E. coli EPI300™ with the PB2 or PB3 biosensors were treated (high copy number) or not treated (low copy number) with arabinose and then screened for reporter activity (Gemini reporter fluorescence from the GFP portion).
(§4) E. coli EPI300™ with fosmids containing PB2 or PB3 were grown without arabinose (low copy number) and in the presence of spectinomycin (200 μg/ml for PB2 and 500 μg/ml for PB3). The host cells were treated with different concentrations of (−)-α-bisabolol (0.0, 0.1, 0.25, 0.4, 0.5, 1.0 and 1.5 mM). FIGS. 6 and 7 show the fluorescence results for PB2 and PB3. Both biosensors show a dose response between 0.05 and 1.0 mM (−)-α-bisabolol.
(§5) E. coli EPI300™ with fosmids containing PB2 or PB3 were grown with 0.01% arabinose for high copy number of the biosensor, or grown in the absence of arabinose for low copy number of the biosensor, and then treated with a sesquiterpene: (−)-α-bisabolol, squalene, nerolidol, cintonellal, carvone, farnesene, or cineole. PB2 was also tested against linalool and PB3 was tested against ursolic acid.

PB3 bisabolol biosensor = PB3 bisabolol biosensor reporter fluorescence (Gemini reporter, GFP portion) in E. coli EPI300 host cells; assay type: cell-based, E. coli EPI300 (PB3 insert originating from Bradyrhizobium); details: for response of PB3 biosensor to stimulation with the compound: E. coli EPI300 with PB3, high (0.01% arabinose) or low copy number
Experimental: as §1, §2, §3, §4, §5

| Compound | response of PB2 biosensor to stimulation with the compound (PB2 bisabolol biosensor) | response of PB3 biosensor to stimulation with the compound (PB3 bisabolol biosensor) | response of PB3 biosensor relative to (−)-α-bisabolol (PB3 bisabolol biosensor; E. coli EPI300 with PB3, 1 mM nerolidol) |
| --- | --- | --- | --- |
| CC(C)=CCC[C@](C)(O)[C@@H]1CC=C(C)CC1 [(−)-α-bisabolol] | high specificity for induction | – | – |
| C=C(C)C1CC=C(C)C(=O)C1 (stereo not drawn) [carvone] | did not respond above background | did not respond above background | – |
| CC12CCC(CC1)C(C)(C)O2 [cineole] | did not respond above background | did not respond above background | – |
| CC(C)=CCC[C@@H](C)CC=O [cintonellal] | did not respond above background | did not respond above background | – |
| C=CC(C)(O)CCC=C(C)C (stereo not drawn) [linalool] | did not respond above background | – | – |
| C=CC(C)(O)CCC=C(C)CCC=C(C)C (stereo not drawn) [nerolidol] | did not respond above background | – | comparable activity to PB3 treated with 0.2 mM (−)-α-bisabolol |
| CC(C)=CCC/C(C)=C/CC/C(C)=C/CC/C=C(\C)CC/C=C(\C)CCC=C(C)C [squalene] | did not respond above background | did not respond above background | – |
| C[C@H]1[C@H](C)CC[C@]2(C(=O)O)CC[C@]3(C)C(=CC[C@@H]4[C@@]5(C)CC[C@H](O)C(C)(C)[C@@H]5CC[C@]43C)[C@H]12 [ursolic acid] | – | did not respond above background | – |
| farnesene | did not respond above background | did not respond above background | – |
